According to patent US20260070921A1, “COMPOUND, ENDOPLASMIC RETICULUM STRESS INHIBITOR, PHARMACEUTICAL PRODUCT, OPHTHALMIC AGENT, EYE DROPS, COMPOSITION, AND METHOD FOR PRODUCING COMPOUND” (KYOTO UNIVERSITY, priority 2022, published 2026):

Key:
HEK293 cells [1] = assay: Tunicamycin assay (cell viability under ER stress, WST-8); type: cell-based; parameters: key to Efficacy 5 μM (ER stress inhibition activity) / Efficacy 25 μM (ER stress inhibition activity) / Efficacy 100 μM (ER stress inhibition activity): “−” indicates no activity; “+” indicates weak activity; “++” indicates strong activity; details: for Efficacy 25 μM (ER stress inhibition activity): compound 25 μM 12 to 18 h; for Efficacy 25 μM (ER stress inhibition activity) / Efficacy 100 μM (ER stress inhibition activity) / Efficacy 5 μM (ER stress inhibition activity): then tunicamycin 5 μg/mL 48 h; for Efficacy 100 μM (ER stress inhibition activity): compound 100 μM 12 to 18 h; for Efficacy 5 μM (ER stress inhibition activity): compound 5 μM 12 to 18 h
Method: HEK293 cells were seeded in 96-well plates ([…]) and incubated at 37° C. for 2 hours. The medium was then replaced with 100 μL of DMEM ([…]) containing self-assembling chemicals (20 or more compounds, including compounds of the present disclosure) and 1% DMSO. After incubation with any one of compounds 1 to 6 at a given concentration for 12 to 18 hours, HEK293 cells were treated with tunicamycin (5 μg/mL) or thapsigargin (10 μM) for 48 hours, and cell viability was measured using a WST-8 cell counting kit (Dojindo Laboratories).
Produced compounds XD8 to XD28 were subjected to a tunicamycin assay in the same manner as in Examples 1 to 9. Specifically, HEK293 cells were first seeded in a 96-well plate (1×10^4 cells/well) and incubated at 37° C. for 2 hours. The medium was then replaced with 100 μL of DMEM (10% FBS) containing a self-assembling chemical (each of compounds XD8 to XD28) and […]. After incubation with any of compounds XD8 to XD28 at a concentration of 5.0 μM, 25 μM, or 100 μM for 12 to 18 hours, HEK293 cells were treated with tunicamycin (5 μg/mL) for 48 hours, followed by measuring cell viability by using a WST-8 cell counting kit (Dojindo Laboratories).

HEK293 cells [2] = assay: Cell viability assay without ER stress inducer (cytotoxicity, WST-8); type: cell-based; details: 64 h
Method: HEK293 cells were treated with compound 1, compound 4, compound 5, or compound 6 (25 μM or 100 μM, respectively) for 64 hours. The vertical axis represents relative cell viability (unit: %), and the horizontal axis represents concentration (unit: μM). Cell viability was measured using a WST-8 cell counting kit. Error bars represent s.d. (n=3).
(§1) FIG. 31 is a graph showing the results of a cell viability assay using bafilomycin A1. HEK293 cells were treated with bafilomycin A1 in DMEM (10% FBS) for 48 hours. The vertical axis represents relative cell viability (unit: %), and the horizontal axis represents the concentration of bafilomycin A1 (unit: μM). Cell viability was measured using a WST-8 cell counting kit. Error bars represent s.d. (n=3).
as §1, with “32” for “31”, “MG132.” for “bafilomycin A1.”, “MG132” for “bafilomycin A1”, “t),” for “%),”
The term “Efficacy” denotes ER (endoplasmic reticulum) stress inhibition activity. The term “Toxicity” denotes cytotoxicity. In the ER stress inhibition activity (Efficacy), “−” indicates no activity, “+” indicates weak activity, and “++” indicates strong activity. In addition, “XD7” in Table 1 below represents compound 6. That is, XD7 and compound 6 are the same compound.

[3] = Dynamic light scattering (DLS) of self-assemblies; type: physicochemical
Description: In the graphs on the left, the vertical axis “Z-ave. (nm)” represents the average particle size. In the graphs on the right, the vertical axis “Derived Count Rate (kcps)” represents the derived count rate. The horizontal axis represents the molar concentration (PM) of PBS (pH of 7.4) and DMEM (10% FBS). Error bars represent s.d. (n=3).
“Z-ave.” represents the average size of particles. Error bars represent s.d. (n=3).
“Z-average” represents the average size of particles. Error bars represent s.d. (n=3).

HEK293 cells [4] = assay: Flow cytometry of intracellular assemblies of compound 1 with endocytosis inhibitors; type: cell-based; details: compound 1 100 μM; chloroquine 100 μM, chlorpromazine 20 μM; 16 h
Method: HEK293 cells were seeded in 12-well plates at 3×10^5 cells/well. After 2 hours of incubation at 37° C., cells were treated with compound 1 (100 μM) and 9-(2,2-dicyanovinyl)julolidine (DCVJ, 1.0 μM) in the presence or absence of chloroquine (100 μM), chlorpromazine (20 μM), and genistein ([…]) in DMEM (10% FBS) at 37° C. for 16 hours. Cells were harvested by incubation in 2 mM EDTA/PBS (pH of 7.4) for 10 minutes. Fluorescence of the cells was measured using a BD FACSAria II and analyzed with BD FACSDiva software.

HEK293 cells [5] = assay: Fluorescence imaging of self-assemblies in living cells (DCVJ); type: cell-based; details: 100 μM, DCVJ 1.0 μM, 8 h
Method: HEK293 cells were incubated with compound 1, 4, 5, or 6 (25 or 100 μM) in the presence of 1.0 μM DCVJ in DMEM (10% FBS). Fluorescence and bright-field images were taken with a CV1000 confocal microscope equipped with a 40× objective lens (Yokogawa Electric Corporation).
The ability of compound 1 and its derivatives, compounds 4 to 6, to form assemblies was also monitored in living cells. […] HEK293 cells were treated with compound 1, 4, 5, or 6 (25 μM or 100 μM) and 1.0 μM of DCVJ for 8 hours. Fluorescence and bright-field images were taken with a CV1000 confocal microscope. HEK293 cells were treated with compound 1, 4, 5, or 6 (25 or 100 μM) and DCVJ (1.0 μM) for 8 hours and observed with a confocal microscope. […] The self-assembling ability of the molecules of compound 6 may be due to its cellular activity at that concentration, even at 25 μM. […] To further support the importance of self-organization formation in cellular activity, dose-response curves for compounds 1 and 6 were determined. The biological activity of the compounds' molecular assembly is expected to be more cooperative than that of the monomer and to show a steeper dose-response curve (Reference Material 18 below). […] Compound 6 is referred to as “selfonamide” below. […] P. A High-Throughput Screen for Aggregation-Based Inhibition in a Large Compound Library. J Med Chem 2007, 50 (10), 2385-2390. https://doi.org/10.1021/jm061317y.

[6] = even at higher concentrations, tunicamycin 5.0 μg/mL 48 h

SMILES	Efficacy 25 μM (ER stress inhibition activity) (HEK293 cells [1])	Efficacy 100 μM (ER stress inhibition activity) (HEK293 cells [1])	Efficacy 5 μM (ER stress inhibition activity) (HEK293 cells [1])	further results
COc1ccc2c(c1)sc1c(=O)nc3nc(Nc4ccc(S(=O)(=O)NC(=N)N)cc4)ccn3c12 [XD21]	++	++		
COc1cc2sc3c(=O)nc4nc(Nc5ccc(S(N)(=O)=O)cc5)ccn4c3c2cc1OC [XD11]	−	++	−	
NS(=O)(=O)c1ccc(Nc2ccn3c(n2)nc(=O)c2sc4ccccc4c23)cc1 [compound 4]				Cytotoxicity (HEK293 cells [2]; up to 100 μM): no obvious cytotoxicity
NS(=O)(=O)c1ccc(Nc2ccn3c(n2)nc(=O)c2sc4cc(F)c(F)cc4c23)cc1 [XD13]	++	++	−	
CCCCCCOc1ccc2c(c1)sc1c(=O)nc3nc(Nc4ccc(S(N)(=O)=O)cc4)ccn3c12 [XD17]	−	+	−	
CCCOc1ccc2c(c1)sc1c(=O)nc3nc(Nc4ccc(S(=O)(=O)NC(=N)N)cc4)ccn3c12 [XD25]	++	+		
NS(=O)(=O)c1ccc(Nc2ccn3c(n2)nc(=O)c2sc4cc(Br)ccc4c23)cc1 [XD12]	+	++	−	
NS(=O)(=O)c1ccc(Nc2ccn3c(n2)nc(=O)c2sc4cc([N+](=O)[O-])ccc4c23)cc1 [XD9]	++	+	−	
N=C(N)NS(=O)(=O)c1ccc(Nc2ccn3c(n2)nc(=O)c2sc4cc([N+](=O)[O-])ccc4c23)cc1 [XD20]		+		
CS(=O)(=O)c1ccc(Nc2ccn3c(n2)nc(=O)c2sc4cc(F)ccc4c23)cc1 [compound 3]				Ability to rescue cells from tunicamycin-induced ER stress (HEK293 cells [1]; tunicamycin 5.0 μg/mL 48 h): eliminated the ability of the compounds to rescue cells; Self-assembly activity (self-assembling ability) [3]: confirmed to have self-assembly activity
CCN(CC)CCCC(C)Nc1ccnc2cc(Cl)ccc12 (centres unmarked) [chloroquine]				Reduction of average DCVJ signal (intracellular assemblies of compound 1) (HEK293 cells [4]): about 30%
NS(=O)(=O)c1ccc(Nc2ccn3c(n2)nc(=O)c2sc4cc(Cl)ccc4c23)cc1 [XD8]	+	++	−	
CN(C)CCCN1c2ccccc2Sc2ccc(Cl)cc21 [chlorpromazine]				Reduction of average DCVJ signal (intracellular assemblies of compound 1) (HEK293 cells [4]): about 30%
O=c1nc2nc(Nc3ccccc3)ccn2c2c1sc1cc(F)ccc12 [compound 2]				Ability to rescue cells from tunicamycin-induced ER stress (HEK293 cells [1]; tunicamycin 5.0 μg/mL 48 h): eliminated the ability of the compounds to rescue cells; Self-assembly activity (self-assembling ability) [3]: confirmed to have self-assembly activity
CCOc1ccc2c(c1)sc1c(=O)nc3nc(Nc4ccc(S(N)(=O)=O)cc4)ccn3c12 [XD14]	−	−	−	
C[C@H](CCC(=O)NCCS(=O)(=O)O)[C@H]1CC[C@H]2[C@@H]3[C@@H](O)C[C@@H]4C[C@H](O)CC[C@]4(C)[C@H]3CC[C@]12C [TUDCA, reference compound]				Rescue from tunicamycin-induced cell death (secondary screen) (HEK293 cells [1]; [6]): little effect
O=C(O)CCCc1ccccc1 [PBA, reference compound]				Rescue from tunicamycin-induced cell death (secondary screen) (HEK293 cells [1]; [6]): little effect; EC50 (HEK293 cells [1]; tunicamycin 5.0 μg/mL 48 h, read-out: EC50 (dose-response curve, Hill equation)): 483 µM
CCCOc1ccc2c(c1)sc1c(=O)nc3nc(Nc4ccc(S(N)(=O)=O)cc4)ccn3c12 [XD15]	−	−	−	
N=C(N)NS(=O)(=O)c1ccc(Nc2ccn3c(n2)nc(=O)c2sc4cc(OCc5ccccc5)ccc4c23)cc1 [XD28]		++		
NS(=O)(=O)c1ccc(Nc2ccn3c(n2)nc(=O)c2sc4cc5c(cc4c23)OCO5)cc1 [XD10]	−	−	−	
CCCCOc1ccc2c(c1)sc1c(=O)nc3nc(Nc4ccc(S(N)(=O)=O)cc4)ccn3c12 [XD16]	−	−	−	
NS(=O)(=O)c1ccc(Nc2ccn3c(n2)nc(=O)c2sc4cc(OCc5ccccc5)ccc4c23)cc1 [XD18]	−	−	−	
Cc1ccc2c(c1)sc1c(=O)nc3nc(Nc4ccc(S(N)(=O)=O)cc4)ccn3c12 [compound 5]				Ability to rescue cells from tunicamycin-induced ER stress (HEK293 cells [1]; tunicamycin 5.0 μg/mL 48 h): lost activity; Cytotoxicity (HEK293 cells [2]; at 25 μM): no obvious cytotoxicity; Cytotoxicity (HEK293 cells [2]; at 100 μM): slightly reduced cell viability; Size of assemblies/particles in living-cell imaging (HEK293 cells [5]): 5 µm
CCCCOc1ccc2c(c1)sc1c(=O)nc3nc(Nc4ccc(S(=O)(=O)NC(=N)N)cc4)ccn3c12 [XD26]	+	++		
NS(=O)(=O)c1ccc(Nc2ccnc(N(C(=O)c3sc4cc(F)ccc4c3Cl)C(=O)c3sc4cc(F)ccc4c3Cl)n2)cc1 [TD-4C8]				Rescue from tunicamycin-induced cell death (secondary screen) (HEK293 cells [1]; compound 50 μM, tunicamycin 5.0 μg/mL 48 h): significantly rescued cells from tunicamycin-induced cell death
